Measured values reported in patent publication US11771637B2, “Skin care composition and method of using the same” (The Procter & Gamble Company, priority 2021, dated 2023).
Where “and” joins values, the source holds several entries; their conditions need not be identical. Equal entries are not always repeated. No end group written: not given here. *: point of attachment. Palmitoyl = CCCCCCCCCCCCCCCC(=O)*

Test system: Antioxidant Response Element (ARE)
Assay: ARE Assay (ARE-32 luciferase reporter cell line)
Format: cell-based
Description: This method provides a way to quantitate ARE activation using the ARE-32 reporter cell line available from CXR Biosciences. The ARE-32 cell line is a stable MCF7 cell line containing pGL8x-ARE (8 copies of the rat GST ARE linked to the luciferase gene) and pCDNA3.1, which contains the neomycin selectable marker. A detailed description of the ARE-32 cell line and its development and use can be found in “Generation of a Stable Antioxidant Response Element-Driven Reporter Gene Cell Line and Its Use to Show Redox-Dependent Activation of Nrf2 by Cancer Chemotherapeutic Agents.” Cancer Res 2006; 66(22): 10983-94. A general schematic for how an ARE reporter assay operates to identify agents that promote transcription off the ARE is described in U.S. Publication No. 2011/0262570.
The ARE Assay uses expanded and cryopreserved passaged stocks. The cells are expanded over 4-5 days in culture flasks and passaged every 3-4 days, when cells are approximately 80% confluent. When cells are >70% confluent or ready to seed into 96 well plates, the cells are trypsinized, seeded and grown in 96-well plates. After growing for 1 day in 96-well plates, the media is replaced with fresh treatment media (phenol red free, no FBS) and cells are treated with compounds and incubated overnight (24 hours). Post treatment, cells are rinsed with 1×PBS, lysed and receive the luciferase kit reagent and luminescence is measured.
Frozen AREC32 cells (frozen in 90% FBS and 10% DMSO) are quickly thawed and placed in a 50 ml conical tube with 25 ml plating media. Centrifuge at 1500-2000 RPM for 5 minutes. Remove media without disturbing cell pellet. Re-suspend cells in 12 ml media and add to T-75 tissue culture flask. Cells should be at >80% confluency in 4-5 days and can be split 1:3 into T-150 flasks to grow cells for seeding plates if more cells are needed.
Cells are maintained and plated in 96-well plates with plating media. Subculture (passage cells) every 3-4 days or when ˜75-80% confluent. To passage cells, aspirate media from flask and add 6 ml 0.25% trypsin. Tilt flask in all directions to distribute the trypsin over the bottom of the flask and place in incubator. After 2-3 minutes observe cells under microscope to see if detached. If cells have not detached completely place in incubator for an additional 2-3 minutes. Once detached, add 6 ml maintenance media to neutralize trypsin and pipet into centrifuge tube. Centrifuge at 1200 RPM for 5 minutes. Remove media without disturbing cell pellet. Re-suspend pellet in 12 ml maintenance media and add to flask. If splitting or detaching cells from a T-150 flask double all volumes and follow same procedures.
Aspirate media from flask and add appropriate volume of 0.25% trypsin depending on size of flask (6 ml for T-75 and 12 ml for T-150 flask). Swirl flask to distribute trypsin on bottom of flask and return to incubator for 2-3 minutes. Observe cells under microscope. If cells have not detached completely place in incubator for an additional 2-3 minutes. Once cells are detached add DMEM equal to the volume of trypsin, mix gently and place in centrifuge tube. Centrifuge at […] for 5 minutes. Aspirate media without disturbing cell pellet. Re-suspend pellet in 10 ml DMEM. Dilute the cells 1:5 using 50 μl cells+200 μl DMEM. Use 20 μl of this dilution and 20 μl 0.4% trypan blue. Mix and add 10 μl/chamber to disposable hemocytometer and insert into Countess II Instrument. Non-viable cells will be blue, viable cells will be unstained. Cell seeding density may vary from ˜10,000 cells/well or more depending on cell passage growth. Cell density should be approx. 70-80% on day of treatment/dosing. […] Media must be free of phenol red.
Tert-Butylhydroquinone (tBHQ) (Aldrich, Cat #11,294-1). Prepare 100 mM stock (1M=166.21 mg/ml; 100 mM=16.62 mg/ml). Dilute to 750 μM (1:133) using 30 μl of 100 mM tBHQ and […] treatment media. 2 μl of positive control should yield a final concentration of 7.5 μM in the test well. […]

## NC(=O)c1cccnc1 [N, niacinamide, reference compound]
N 1 ppm alone
  Average Net Luminescence N: 8
N 10 ppm alone
  Average Net Luminescence N: 12
N 50 ppm alone
  Average Net Luminescence N: 45
N 500 ppm alone
  Average Net Luminescence N: 53
Table 3, N 500 ppm alone
  Average Net Luminescence N: 45

## acetyl tetrapeptide-11 (Ac-PPYL)
Ac-PPYL 0.05 ppm alone
  Average Net Luminescence Ac-PPYL: 12 and 19.4 and 20
Ac-PPYL 0.1 ppm alone
  Average Net Luminescence Ac-PPYL: 22 and 15.7
Ac-PPYL 0.5 ppm alone
  Average Net Luminescence Ac-PPYL: 14.7 and 26
Ac-PPYL 1 ppm alone
  Average Net Luminescence Ac-PPYL: 56 and 51
Ac-PPYL 2 ppm alone
  Average Net Luminescence Ac-PPYL: 64 and 61
Table 3, Ac-ppyl 2 ppm alone
  Average Net Luminescence Ac-PPYL: 57

## palmitoyl pentapeptide-4 (Palmitoyl-KTTKS) [Pal-KTTKS]
Pal-KTTKS 1 ppm alone
  Average Net Luminescence Pal-kttks: 24.3
Table 3, Pal-kttks 1 ppm alone
  Average Net Luminescence Pal-kttks: 21
